In patent US20110004021A1, “THIAZOLECARBOXANILIDES” (priority 2005, published 2011):

Tested on: Alternaria solani
Assay: Activity against early blight of tomato caused by Alternaria solani
Type: in vivo
Conditions: tomato cultivar Goldene Königin, protective spray 4 ppm, infected next day, assessed after 5 days; untreated plants 90% infected
Protocol: The active compounds were prepared as a stock solution comprising 25 mg of active compound which was filled up to 10 ml with a mixture of acetone and/or dimethyl sulfoxide and the emulsifier Uniperol® EL (wetting agent having an emulsifying and dispersing action based on ethoxylated alkylphenols) in a solvent/emulsifier volume ratio of 99 to 1. The solution was then made up to 100 ml with water. This stock solution was diluted with the solvent/emulsifier/water mixture described to the active compound concentration given below.
Leaves of potted plants of the cultivar “Goldene Königin” were sprayed to runoff point with an aqueous suspension having the concentration of active compounds stated below. The next day, the leaves were infected with an aqueous spore suspension of Alternaria solani in 2% biomalt solution having a density of 0.12×10^6 spores/ml. The plants were then placed in a water-vapor-saturated chamber at temperatures of between 20 and 22° C. After 5 days, the infection on the untreated, but infected control plants had developed to such an extent that the infection could be determined visually in %.

Structure (SMILES)	infection
Cc1nc(C(F)(F)F)c(C(=O)Nc2ccccc2-c2ccc(F)c(F)c2)s1	20%
Cc1nc(C(F)(F)F)c(C(=O)Nc2ccccc2-c2cc(F)c(F)c(F)c2)s1 [I.1, N-(3′,4′,5′-Trifluorobiphenyl-2-yl)-2-methyl-4-trifluoromethylthiazole-5-carboxamide]	at most 7%
